Activity data for three molecules are collected here from ChEMBL document CHEMBL5715954, “Silencing c-Myc translation as a therapeutic strategy through targeting PI3Kδ and CK1ε in hematological malignancies” (Blood, 2017).

Holding throughout (set-up): scale not given: the % may be the effect or the level left
In test [1] the target is Serine/threonine-protein kinase MRCK gamma (Homo sapiens) (UniProt Q6DT37). The test is described as follows: Inhibition of human DMPK2 assessed as enzyme activity at 1 uM using KKRPQRRYSNVF as substrate preincubated for 20 mins followed by [gamma-33P]-ATP addition and measured after 120 mins by radiometric Hot-SpotSM Kinase assay relative to control.
For test [2], the target named is Mitogen-activated protein kinase 9 (Homo sapiens) (UniProt P45984). Description: Inhibition of human JNK2-alpha2 assessed as enzyme activity at 1 uM using ATF2 as substrate preincubated for 20 mins followed by [gamma-33P]-ATP addition and measured after 120 mins by radiometric Hot-SpotSM Kinase assay relative to control.
Test [3] deals with Mitogen-activated protein kinase kinase kinase kinase 5 (Homo sapiens) (UniProt Q9Y4K4). Description: Inhibition of human KHS assessed as enzyme activity at 1 uM using myelin basic protein as substrate preincubated for 20 mins followed by [gamma-33P]-ATP addition and measured after 120 mins by radiometric Hot-SpotSM Kinase assay relative to control.
In test [4] the target is T1, Serine/threonine-protein kinase Nek9 (Homo sapiens) (UniProt Q8TD19).
T1 sequence (whole entry): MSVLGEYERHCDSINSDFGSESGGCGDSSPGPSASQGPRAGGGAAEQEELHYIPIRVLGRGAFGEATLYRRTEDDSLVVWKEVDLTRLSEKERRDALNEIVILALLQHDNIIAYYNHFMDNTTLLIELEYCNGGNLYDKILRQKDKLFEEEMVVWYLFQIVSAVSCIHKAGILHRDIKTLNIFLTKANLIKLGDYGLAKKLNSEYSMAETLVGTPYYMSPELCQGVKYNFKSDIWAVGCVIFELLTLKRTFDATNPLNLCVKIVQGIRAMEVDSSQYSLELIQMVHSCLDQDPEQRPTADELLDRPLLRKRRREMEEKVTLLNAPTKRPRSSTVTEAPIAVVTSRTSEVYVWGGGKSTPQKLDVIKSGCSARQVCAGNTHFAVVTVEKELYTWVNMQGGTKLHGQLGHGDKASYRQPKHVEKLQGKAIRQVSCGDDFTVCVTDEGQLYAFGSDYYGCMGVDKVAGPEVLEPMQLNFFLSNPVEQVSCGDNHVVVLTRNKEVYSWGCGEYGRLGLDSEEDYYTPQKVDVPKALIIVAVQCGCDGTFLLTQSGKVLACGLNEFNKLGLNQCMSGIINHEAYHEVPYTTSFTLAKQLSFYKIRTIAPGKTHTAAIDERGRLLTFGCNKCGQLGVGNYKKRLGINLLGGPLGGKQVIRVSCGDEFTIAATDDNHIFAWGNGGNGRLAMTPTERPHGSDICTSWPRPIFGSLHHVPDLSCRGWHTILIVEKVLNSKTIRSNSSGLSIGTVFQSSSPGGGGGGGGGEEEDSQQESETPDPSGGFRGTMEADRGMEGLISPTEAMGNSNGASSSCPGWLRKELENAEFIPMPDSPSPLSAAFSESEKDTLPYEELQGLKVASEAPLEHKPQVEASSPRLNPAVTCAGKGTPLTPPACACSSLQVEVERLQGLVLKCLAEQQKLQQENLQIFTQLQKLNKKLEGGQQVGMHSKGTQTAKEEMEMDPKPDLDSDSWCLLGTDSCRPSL
Description: Inhibition of human NEK9 assessed as enzyme activity at 1 uM using myelin basic protein as substrate preincubated for 20 mins followed by [gamma-33P]-ATP addition and measured after 120 mins by radiometric Hot-SpotSM Kinase assay relative to control.

For test [5], the target named is Serine/threonine-protein kinase PLK3 (Homo sapiens) (UniProt Q9H4B4). The test is described as follows: Inhibition of human PLK3 assessed as enzyme activity at 1 uM using casein as substrate preincubated for 20 mins followed by [gamma-33P]-ATP addition and measured after 120 mins by radiometric Hot-SpotSM Kinase assay relative to control.
In test [6] the target is T2, cAMP-dependent protein kinase catalytic subunit PRKX (Homo sapiens) (UniProt P51817).
T2 sequence (whole entry): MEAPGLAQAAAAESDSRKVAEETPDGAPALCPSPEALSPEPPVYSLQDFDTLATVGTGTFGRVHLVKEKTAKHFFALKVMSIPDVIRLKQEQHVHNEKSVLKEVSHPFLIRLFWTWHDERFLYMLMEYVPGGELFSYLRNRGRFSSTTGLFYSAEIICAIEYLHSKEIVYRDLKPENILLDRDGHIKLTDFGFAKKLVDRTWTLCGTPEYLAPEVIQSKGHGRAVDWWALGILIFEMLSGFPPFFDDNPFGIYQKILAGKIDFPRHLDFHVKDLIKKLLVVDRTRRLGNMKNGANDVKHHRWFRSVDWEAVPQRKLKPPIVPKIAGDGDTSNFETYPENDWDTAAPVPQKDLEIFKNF
The test is described as follows: Inhibition of human PRKX assessed as enzyme activity at 1 uM using LRRASLG as substrate preincubated for 20 mins followed by [gamma-33P]-ATP addition and measured after 120 mins by radiometric Hot-SpotSM Kinase assay relative to control.

The target in test [7] is T3, Tyrosine-protein kinase TXK (Homo sapiens) (UniProt P42681).
T3 sequence (whole entry): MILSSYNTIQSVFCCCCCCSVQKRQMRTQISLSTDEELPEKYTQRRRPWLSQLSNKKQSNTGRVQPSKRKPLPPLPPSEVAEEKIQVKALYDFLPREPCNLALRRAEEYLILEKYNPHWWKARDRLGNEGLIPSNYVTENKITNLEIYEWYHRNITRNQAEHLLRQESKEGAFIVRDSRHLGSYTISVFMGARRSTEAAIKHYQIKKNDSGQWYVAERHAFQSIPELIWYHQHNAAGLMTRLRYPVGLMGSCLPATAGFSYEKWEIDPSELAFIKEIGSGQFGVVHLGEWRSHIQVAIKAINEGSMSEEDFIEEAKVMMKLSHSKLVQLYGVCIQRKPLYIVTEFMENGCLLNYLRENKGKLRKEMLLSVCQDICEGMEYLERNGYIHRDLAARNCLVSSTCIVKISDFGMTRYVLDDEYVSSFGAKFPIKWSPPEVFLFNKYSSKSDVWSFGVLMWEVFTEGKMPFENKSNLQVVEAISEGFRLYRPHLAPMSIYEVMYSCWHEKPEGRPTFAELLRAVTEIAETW
Description: Inhibition of human TXK assessed as enzyme activity at 1 uM using EAIYAAPFAKKK as substrate preincubated for 20 mins followed by [gamma-33P]-ATP addition and measured after 120 mins by radiometric Hot-SpotSM Kinase assay relative to control.

Molecules are shown by their SMILES.

Mitogen-activated protein kinase 9 (Homo sapiens), sequence (P45984 whole entry, looked up): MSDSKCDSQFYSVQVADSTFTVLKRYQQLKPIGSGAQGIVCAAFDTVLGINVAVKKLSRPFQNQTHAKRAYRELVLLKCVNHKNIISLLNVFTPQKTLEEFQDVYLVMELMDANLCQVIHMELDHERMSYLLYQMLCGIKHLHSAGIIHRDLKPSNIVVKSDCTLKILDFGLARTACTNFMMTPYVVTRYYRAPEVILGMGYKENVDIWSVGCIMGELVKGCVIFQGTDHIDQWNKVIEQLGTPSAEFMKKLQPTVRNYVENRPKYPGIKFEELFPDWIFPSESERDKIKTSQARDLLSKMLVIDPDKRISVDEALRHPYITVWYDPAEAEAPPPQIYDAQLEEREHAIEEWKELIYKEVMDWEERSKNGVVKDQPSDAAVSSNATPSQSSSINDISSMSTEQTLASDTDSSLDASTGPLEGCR
Serine/threonine-protein kinase MRCK gamma (Homo sapiens), sequence (Q6DT37 whole entry): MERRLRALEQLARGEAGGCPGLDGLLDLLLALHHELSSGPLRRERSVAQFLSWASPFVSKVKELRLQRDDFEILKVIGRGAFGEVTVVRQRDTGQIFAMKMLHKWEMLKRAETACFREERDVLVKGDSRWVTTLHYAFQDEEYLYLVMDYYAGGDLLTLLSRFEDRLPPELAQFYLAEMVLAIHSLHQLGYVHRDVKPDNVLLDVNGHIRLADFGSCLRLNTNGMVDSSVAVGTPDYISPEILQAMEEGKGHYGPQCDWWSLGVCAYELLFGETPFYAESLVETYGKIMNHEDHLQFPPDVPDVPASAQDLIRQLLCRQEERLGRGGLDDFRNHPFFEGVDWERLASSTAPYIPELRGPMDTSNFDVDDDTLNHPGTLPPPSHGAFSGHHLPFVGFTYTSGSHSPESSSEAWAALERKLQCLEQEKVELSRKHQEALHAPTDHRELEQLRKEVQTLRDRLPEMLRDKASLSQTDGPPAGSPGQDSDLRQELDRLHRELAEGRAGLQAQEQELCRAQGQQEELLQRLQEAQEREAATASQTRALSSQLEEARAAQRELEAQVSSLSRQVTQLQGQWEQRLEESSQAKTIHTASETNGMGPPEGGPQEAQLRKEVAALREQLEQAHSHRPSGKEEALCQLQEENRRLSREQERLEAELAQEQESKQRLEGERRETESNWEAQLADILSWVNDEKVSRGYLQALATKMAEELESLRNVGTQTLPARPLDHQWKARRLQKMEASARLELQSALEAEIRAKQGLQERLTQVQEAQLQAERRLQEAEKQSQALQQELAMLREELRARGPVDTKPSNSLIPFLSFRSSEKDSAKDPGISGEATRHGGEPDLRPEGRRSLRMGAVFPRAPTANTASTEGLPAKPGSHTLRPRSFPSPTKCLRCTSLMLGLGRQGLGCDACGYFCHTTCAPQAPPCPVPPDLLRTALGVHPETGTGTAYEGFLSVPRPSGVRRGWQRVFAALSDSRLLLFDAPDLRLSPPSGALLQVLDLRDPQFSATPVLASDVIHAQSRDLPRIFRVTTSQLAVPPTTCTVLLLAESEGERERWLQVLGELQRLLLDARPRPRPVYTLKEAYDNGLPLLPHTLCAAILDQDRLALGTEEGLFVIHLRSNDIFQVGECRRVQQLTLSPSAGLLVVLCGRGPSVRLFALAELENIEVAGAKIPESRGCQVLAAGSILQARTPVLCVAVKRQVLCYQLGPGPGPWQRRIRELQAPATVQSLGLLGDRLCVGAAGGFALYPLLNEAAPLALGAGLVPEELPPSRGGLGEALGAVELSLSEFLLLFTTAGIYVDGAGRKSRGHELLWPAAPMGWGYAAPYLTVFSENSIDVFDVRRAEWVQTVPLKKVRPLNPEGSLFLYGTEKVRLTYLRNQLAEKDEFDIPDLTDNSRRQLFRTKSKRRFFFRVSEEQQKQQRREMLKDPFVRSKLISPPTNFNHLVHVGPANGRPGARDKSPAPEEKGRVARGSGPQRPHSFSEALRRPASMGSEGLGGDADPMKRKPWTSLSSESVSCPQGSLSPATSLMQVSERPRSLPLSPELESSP
Serine/threonine-protein kinase PLK3 (Homo sapiens), sequence (Q9H4B4 whole entry, looked up): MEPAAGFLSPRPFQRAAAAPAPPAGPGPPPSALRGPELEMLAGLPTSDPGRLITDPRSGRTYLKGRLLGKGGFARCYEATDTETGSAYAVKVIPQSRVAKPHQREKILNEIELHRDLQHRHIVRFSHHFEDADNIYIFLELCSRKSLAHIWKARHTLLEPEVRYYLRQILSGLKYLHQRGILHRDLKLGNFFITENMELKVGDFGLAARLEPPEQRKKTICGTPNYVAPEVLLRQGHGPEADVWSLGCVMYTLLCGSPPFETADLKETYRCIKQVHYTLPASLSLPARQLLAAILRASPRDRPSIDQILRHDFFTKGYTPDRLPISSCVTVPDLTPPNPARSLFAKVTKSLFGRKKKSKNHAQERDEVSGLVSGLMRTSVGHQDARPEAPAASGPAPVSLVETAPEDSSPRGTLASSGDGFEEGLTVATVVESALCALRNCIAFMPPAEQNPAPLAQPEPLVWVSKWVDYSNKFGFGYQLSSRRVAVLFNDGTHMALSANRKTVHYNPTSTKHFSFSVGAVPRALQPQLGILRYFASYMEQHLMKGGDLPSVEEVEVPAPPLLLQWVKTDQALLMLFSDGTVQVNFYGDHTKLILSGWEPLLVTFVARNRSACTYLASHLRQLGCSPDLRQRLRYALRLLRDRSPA
Mitogen-activated protein kinase kinase kinase kinase 5 (Homo sapiens), sequence (Q9Y4K4 whole entry, looked up): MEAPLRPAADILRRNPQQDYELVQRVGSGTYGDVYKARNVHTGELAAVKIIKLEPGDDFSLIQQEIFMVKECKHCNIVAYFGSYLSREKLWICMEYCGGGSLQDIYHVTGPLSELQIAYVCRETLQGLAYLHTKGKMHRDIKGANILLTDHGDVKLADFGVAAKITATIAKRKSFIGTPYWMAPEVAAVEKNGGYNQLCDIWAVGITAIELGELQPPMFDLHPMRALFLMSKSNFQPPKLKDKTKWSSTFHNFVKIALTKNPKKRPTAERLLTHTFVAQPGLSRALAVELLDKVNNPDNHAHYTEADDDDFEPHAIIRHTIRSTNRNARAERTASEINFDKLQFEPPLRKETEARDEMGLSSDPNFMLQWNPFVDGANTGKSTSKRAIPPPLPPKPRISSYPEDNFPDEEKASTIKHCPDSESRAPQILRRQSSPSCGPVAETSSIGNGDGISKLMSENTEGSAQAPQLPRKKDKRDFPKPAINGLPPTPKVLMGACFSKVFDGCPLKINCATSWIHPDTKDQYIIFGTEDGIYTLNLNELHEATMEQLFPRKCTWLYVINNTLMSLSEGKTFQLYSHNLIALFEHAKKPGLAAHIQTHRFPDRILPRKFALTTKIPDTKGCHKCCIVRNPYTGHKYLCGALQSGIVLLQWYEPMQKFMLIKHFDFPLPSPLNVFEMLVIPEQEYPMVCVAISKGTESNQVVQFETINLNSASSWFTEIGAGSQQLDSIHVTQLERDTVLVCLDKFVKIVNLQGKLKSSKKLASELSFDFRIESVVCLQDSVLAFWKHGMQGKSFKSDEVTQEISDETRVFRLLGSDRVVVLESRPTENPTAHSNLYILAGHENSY

For the molecule `C[C@H](Nc1ncnc2nc[nH]c12)c1cc2cccc(Cl)c2c(=O)n1-c1ccccc1`, the Activity stood at 102% in test [1]; 97.8% in test [2]; 101% in test [3]; 94.8% in test [4]; 95.1% in test [5]; 98.6% in test [6]. Moreover, in test [7], the Activity worked out at 101%.
Regarding `CC[C@H](Nc1ncnc2[nH]cnc12)c1nc2cccc(F)c2c(=O)n1-c1ccccc1`, the Activity stood at 97.4% in test [1]; 96.8% in test [2]; 95.9% in test [3]; 95.1% in test [4]; 98.4% in test [5]; 97.6% in test [6]. The Activity in test [7] amounted to 109%.
`CC(C)Oc1ccc(-c2nn([C@@H](C)c3oc4ccc(F)cc4c(=O)c3-c3cccc(F)c3)c3ncnc(N)c23)cc1F` [UMBRALISIB]: the Activity worked out at 104% in test [1]; 97.3% in test [2]; 99.5% in test [3]; 91.6% in test [4]; 96.7% in test [5]; 90.8% in test [6]. Also, in test [7], the Activity came to 111%.
